Reference: patent US11427567B2, “Imidazolyl pyrimidinylamine compounds as CDK2 inhibitors” (Incyte Corporation, priority 2019, dated 2022)

Legend:
[1] = tested on: Rb phosphorylated on serine 780 in CCNE1 amplified COV318 cells; assay: CDK2 pRb (S780) HTRF cellular assay; assay type: cell-based; details: Homo sapiens, overnight treatment, read-out: IC50 in p-RB S780 HTRF cellular assay
Description: CDK2 pRb (5780) HTRF cellular assay enables the quantitative detection of Rb phosphorylated on […] in CCNE1 amplified COV318 cells. The assay comprised two antibodies: Europium cryptate labeled anti-Phospho-Rb […] antibody (donor) and d2 labeled anti-Rb antibody (acceptor). In brief, COV318 cells were seeded into the wells of 96-well plate at a density of 25,000 per well with 9-point, 3-fold serial diluted compounds and cultured overnight at 37 degree with 5% CO2. The final concentrations of compounds start from 3 μM. […] After 2h of incubation at room temperature, HTRF signals were measured on the PHERAstar microplate reader (BMG Labtech), using 340 nm as excitation wavelength, a 620 nm filter for the Europium donor fluorescence, and a 665-nm filter for the acceptor fluorescence detection. HTRF signals were calculated as the HTRF ratio (ratio of fluorescence measured at 665 nm and 620 nm)×10000.

[2] = tested on: CCNE1 amplified COV318 cells; assay: Cell cycle analysis by FACS after p16 knockdown and CDK2 inhibitor treatment; assay type: cell-based, human; details: 100 nM, 16 hours
Description: To confirm the role of p16 in CDK2-sensitivity of CCNE-amplified cells, COV318 cells were treated with control or p16-specific siRNA.
Human cyclin E1 (CCNE1) amplified ovarian cell lines OVCAR3, COV318, Fu-OV1, endometrial cell line KLE, gastric cell lines MKN1, AGS, NCIN87, and CCNE1 non-amplified ovarian cell lines COV504, OV56, Igrov1 were cultured in RPMI 1640 medium. The complete growth medium was supplemented with 10% FBS, 0.1 mM non-essential amino acids, 2 mM L-glutamine, 100 units/mL penicillin G and 100 μg/mL streptomycin in 37° C. humidified incubator and an atmosphere of 5% CO2 in air. Fu-OV1 line was purchased from Leibniz-Institute DSMZ—German Collection of Microorganisms and Cell Cultures; MKN1 was purchased from Japanese Cancer Research Resources Bank; and the rest of cell lines were purchased from American Type Culture Collection. For transfection, cells were seeded into 6-well for 24 hours and transiently transfected by Lipofectamine 2000 Reagent (Thermo Fisher, 11668027). […]
Bulk DNA was stained with DAPI. Compound-treated and DMSO treated control cells were acquired with CytoFlex (Beckman Coulter) and were analyzed using the FlowJo software. […]

[3] = tested on: CCNE1-non-amplified cell lines (COV504, OV56, Igrov1); assay: Cell cycle analysis by FACS upon CDK4/6 inhibition, CCNE1-non-amplified cell lines; assay type: cell-based, human
Description: (§1) The effect of CDK4/6-inhibition in CCNE1-amplified versus CCNE1-non-amplified cell lines was evaluated.
(§2) A similar experiment was performed in a larger set of CCNE1-amplified cell lines (COV318 and OVCAR3) and CCNE1-non-amplified cell lines (COV504, OV56, and Igrov1) (FIG. 6).
(§3) The complete growth medium was supplemented with 10% FBS, 0.1 mM non-essential amino acids, 2 mM L-glutamine, 100 units/mL penicillin G and 100 μg/mL streptomycin in 37° C. humidified incubator and an atmosphere of 5% CO2 in air. Fu-OV1 line was purchased from Leibniz-Institute DSMZ—German Collection of Microorganisms and Cell Cultures; MKN1 was purchased from Japanese Cancer Research Resources Bank; and the rest of cell lines were purchased from American Type Culture Collection.
(§4) Bulk DNA was stained with DAPI. Compound-treated and DMSO treated control cells were acquired with CytoFlex (Beckman Coulter) and were analyzed using the FlowJo software.

[4] = tested on: CCNE1-amplified cell lines (COV318, OVCAR3); assay: Cell cycle analysis by FACS upon CDK4/6 inhibition, CCNE1-amplified cell lines; assay type: cell-based, human
Description: as §1, §2, §3, §4

[5] = tested on: Rb phosphorylation at S780 in CCNE1-non-amplified cell lines (COV504 and OV56); assay: Western blot of Rb phosphorylation at S780, CCNE1-non-amplified cell lines; assay type: cell-based, human; details: various doses, 1 or 15 hours
Description: (§5) The effect of CDK4/6-inhibition on Rb phosphorylation at 5780 in CCNE1-amplified versus CCNE1-non-amplified cell lines was evaluated. […] One or 15 hours after treatment, the cells were harvested and total protein was extracted and analyzed by western blot (FIG. 8).
(§6) Whole cell extracts were prepared using RIPA buffer (Thermo Scientific, 89900) with a Halt Protease and Phosphatase Inhibitor Cocktail (Thermo Scientific, 78440). Protein concentration was quantified with a BCA Protein Assay Kit (Thermo Scientific, 23225) and 40 μg of protein lysates were loaded for SDS-PAGE using precast gradient gels (Bio-Rad, Hercules, No. 456-1094). Samples were diluted in 5× Laemmli buffer (300 mM Tris-HCl pH 6.8, 10% SDS (w/v), 5% 2-mercaptoethanol, 25% glycerol (v/v), 0.1% bromophenol blue w/v) and boiled for 5 minutes. […] of proteins were separated by 8-15% SDS-PAGE and transferred onto polyvinylidene fluoride (PVDF) membranes. Unspecific binding sites on the PVDF membranes were blocked with 5% non-fat milk in TBST (20 mM Tris-HCl, pH 7.6, 137 mM NaCl, 1% Tween-20). […] Images were captured by Luminescence/Fluorescence Imaging System Odyssey CLx Imager (LI-COR).

[6] = tested on: Rb phosphorylation at S780 in CCNE1-amplified cell lines (OVCAR3 and COV318); assay: Western blot of Rb phosphorylation at S780, CCNE1-amplified cell lines; assay type: cell-based, human; details: various doses, 1 or 15 hours
Description: as §5, §6

SMILES | IC50 [1] [nM] | Percentage of S phase cells ([2]; control siRNA-treated COV318 cells) | Percentage of S phase cells as compared to DMSO control ([2]; p16 knocked down COV318 cells) | Inhibition of proliferation (cell cycle analysis by FACS) ([3]; CCNE1-non-amplified cells (COV504), increasing concentrations, 16 hours) | Percentage of cells at the S phase as compared to DMSO ([3]; COV504, OV56, Igrov1, 16 hours after treatment) | Inhibition of proliferation (cell cycle analysis by FACS) ([4]; CCNE1-amplified cells (OVCAR3), increasing concentrations, 16 hours) | Percentage of cells at the S phase as compared to DMSO ([4]; COV318 and OVCAR3, 16 hours after treatment) | Rb phosphorylation at S780 (western blot) [5] | Rb phosphorylation at S780 (western blot) [6]
C[C@@]1(O)CCC[C@H]1n1c(=O)ccc2cnc(NC3CCN(S(C)(=O)=O)CC3)nc21 [Compound A, 8-((1R,2R)-2-hydroxy-2-methylcyclopentyl)-2-((1-(methylsulfonyl)piperidin-4-yl)amino)pyrido[2,3-d]pyrimidin-7(8H)-one] | 37 | significantly decreased | not significantly decreased | – | – | – | – | – | –
CC(=O)c1c(C)c2cnc(Nc3ccc(N4CCNCC4)cn3)nc2n(C2CCCC2)c1=O [Palbociclib] | > 3000 | – | – | dose-dependent inhibition of the proliferation | decreased in CCNE1-non-amplified cell lines in a dose-dependent fashion | not in CCNE1-amplified cells | not significantly different | blocked Rb phosphorylation | not in CCNE1-amplified cell lines
